Assay [1] deals with H. pylori flaA-luciferase reporter strain N6. Description: microbe, parasite or virus in culture. It is filed as cell-based, Helicobacter pylori. The settings on record: for Weak activity (% of non-inhibited control): flaA-luciferase reporter strain N6, IC50 not determined; for inhibitory activity in luciferase reporter assay: result in words. The source says: The H. pylori flaA promoter was fused with a luciferase operon (luxAB) from Vibrio harveyi in a H. pylori suicide plasmid (Niehus, Ye, Suerbaum, & Josenhans, 2002). The flaA reporter fusion was recombined into the H. pylori chromosome and the resulting strain tested to be strongly luminescence positive. The reporter strain (N6 flaA-lux4B) activated luminescence to about 40,000 to 60,000 counts per second using luciferase substrate at an OD600 of 0.8 (mid-log phase) in liquid culture. The negative control value of a non-reporter strain or reporter strain without luminescence substrate was close to zero. […] The Z-Factor (Zhang et al., 1999) determined for the assay with various bacterial inhibitors measured in quadruplicates or triplicates was routinely between 0.6 and 0.7, with a confidence interval of 95%.
H. pylori luminescence reporter strains were passaged on blood agar plates less than 22 hours prior to the start of the experiment. The passage number for these assays was not higher than five to preserve the strain's properties and genetic stability. Luciferase reaction buffer was prepared as follows: 50 mM disodium phosphate (Na2HPO4) and 2% BSA were dissolved in HPLC water, filter sterilized, aliquoted and frozen at - 20°C.
Bacteria were harvested in brain-heart infusion medium (BHI, 3% yeast extract with 5% horse serum added) and adjusted to an OD600 of 0.8 at room temperature. 50 µl of the bacterial suspension were added per well of a 96 well plate (non-binding, Greiner Bio-One 655901). 2 µl of each of the test compounds (provided as a 10 mM DMSO solution) were added to the sample wells. The same amount of pure, diluted DMSO was added to the control wells for a concentration of a maximum of 4% DMSO per well, since higher concentrations will interfere with metabolic functions of H. pylori and cause false negative results. The microwell plate was incubated inside a sterile sealed PM Gas Bag (BIOLOG #3032) together with a CampyGen Compact pack (Oxoid) to generate microaerobic conditions at 37°C and with shaking at 175 rpm for 4 h.
Shortly before taking the measurement, the luciferase substrate was prepared by diluting the luminescence substrate decanal (10% stock, Sigma Aldrich) at a 1 :2,000 dilution in luciferase reaction buffer. 60 µl of the substrate were added per well of a white 96 microwell plate (Thermo Scientific #236105) without the lid.
For the final luciferase measurement, 10 µl of bacterial solution were transferred with the epMotion 96 (Eppendorf) simultaneously to the wells containing the luciferase substrate and incubated on a microwell plate shaker for 10 s to lyse the bacteria. The measurements were recorded with a Perkin Elmer Victor 3/WNallac 1420 plate reader (luminometry, measurement time: 0.5 sec) and integrated to counts per sec. For the background measurement, 10 µl sterile medium containing 4% DMSO was added to the wells. For each measurement, at least four luciferase reporter positive control wells (without inhibitory compound) and four negative control wells (background without bacteria) were run on the same day and under the same assay conditions in parallel.

For a further assay, the system named is H. pylori. In words: therapeutic treatment in chronic H. pylori mouse infection model (cfu counts, cagL PCR). It is filed as in vivo, C57B/L6 mice. The protocol:
6-8 weeks old specific pathogen-free C57B/L6 mice were obtained from Charles River Laboratories. They were acclimatized to the new surroundings for one week before starting the assays. For the whole duration of the experiment, mice had access to sterile chow and sterile water ad libitum. In week one of the experiment, H. pylori was administered at 3×10^8 bacteria per mouse per inoculum (100 µl) on two days with one day of break in between. The proof-of-principle treatment was started two weeks after the end of the inoculation week, assuming a stable infection at this time point. The mice were treated in separate groups (8-14 animals per group), as outlined in the results, with compound(s), antibiotic (metronidazole at 14.3 mg/kg/day), a combination of both antibiotic and compound (for concentrations, see Results), or mock-treated once daily over seven consecutive days by intra-gastric gavage. After the treatment week, the mice were kept for another two weeks under normal housing and feeding conditions with sterilized chow and sterile water ad libitum. At the end of the assay period (week seven), the mice were necropsied by cervical dislocation under CO2 anesthesia. The animal experiments were authorized under German federal law by the LAVES (Lower Saxony Government Authority).
Then, BL2 was further tested for therapeutic efficacy in a mouse model of chronic H. pylori infection (Fig. 5). Six groups of mice (10 mice per group in each of the four infected and/or treated groups, and six mice in both of the control groups) were established in this mouse treatment trial. For the treatment groups, mice were infected in week one (using ca. 3×10^8 bacteria per animal; Methods), and the chronic infection was manifested for two more weeks. The once-daily treatment (intragastric gavage) started in week four on seven consecutive days. For the treatment groups, three H. pylori-infected groups were evaluated in parallel. One dose of treatment was given daily.
Group one was treated with metronidazole (14.3 mg/kg/day) only, an established anti-H. pylori antibiotic. The antibiotic concentration corresponds to concentrations routinely used in human treatment. Group two was treated with metronidazole (dosed at 14.3 mg/kg/day) and BL2 (10 mg/kg/day) in combination, and group three received BL2 (10 mg/kg/day) only. In addition, one infected and mock-treated group was kept as positive control, and two mock-infected groups were set aside, one for administering BL2 only (10 mg/kg/day; microbiota compound control) and one which was mock-infected and mock-treated (microbiota null control).
The read-out of successful treatment was the reduction of colony-forming units (cfus) of bacteria in infected and treated mice, over infected, non-treated, mice, at the end of the experiment. […] All mice in the infected positive control group were colonized (both cfu counts and PCR-positive), although the cfu counts in three positive animals were rather low.

The subject of a further assay is H. pylori N6. Description: vitality / metabolic (respiratory inhibition) counter-screen. It is filed as cell-based, Helicobacter pylori. The settings on record: > 100% indicates no inhibition. Background: Counterscreens check selectivity or assay interference.
Setting [2] is: Helicobacter pylori, H. pylori flaA-luciferase reporter strain N6, Table 6.
[3] abbreviates: H. pylori flaA-luciferase reporter strain N6, Table 6.

≈ marks a conversion by molar mass, not a printed value. Where “and” joins values, the source holds several entries; their conditions need not be identical. Identical values can stand only once. Entries after “also recorded” stand apart in the source; their conditions may differ. Like-named read-outs stand apart in the source and are kept apart here. Bounds are passed on as bounds.

By IC50 is commonly meant the point on the concentration scale where inhibition reaches its midpoint. As for `CC(C)c1ccc(-n2c(=O)c(Br)c(CSC(=N)N)n2C)cc1` [DJ-7, (4-bromo-1-(4'-isopropylphenyl)-2-methyl-5-oxo-2,5-dihydro-1H-pyrazol-3-vl)methyl carbamimidothioate], the IC50 in assay [1] (setting [2]) was under 4.5 µg/mL. On to `Cc1ccc(-n2c(=O)c(Br)c(CSCc3c(Br)c(=O)n(-c4ccc(C)cc4)n3C)n2C)cc1` [DJ-14, 5,5'-(thiobis(methylene))bis(4-bromo-1-methyl-2-(p-tolyl)-1,2-dihydro-3H-pyrazol-3-one)], for which, in assay [1], the “Weak activity (% of non-inhibited control)” value is given as “Weak activity (+/- 90 % of control) (IC50 not determined)” and the “inhibitory activity in luciferase reporter assay” value (“inhibitory activity” for short) was “detectable yet weaker inhibitory activity”. For the compound `Cn1c(CSC(=N)N)c(Br)c(=O)n1-c1ccc(Cl)cc1` [DJ-9, (4-bromo-1-(4'-chlorophenyl)-2-methyl-5-oxo-2,5-dihydro-1H-pyrazol-3-vl)methyl carbamimidothioate], in assay [1] (setting [2]), the IC50 is under 4.5 µg/mL. Consider `Cc1ncc([N+](=O)[O-])n1CCO` [metronidazole, reference compound], for which the “reduction of colony-forming units (cfus) / bacterial loads in stomach” value in the assay with H. pylori (BL2 10 mg/kg/day, metronidazole 14.3 mg/kg/day, once daily, 7 days, intragastric gavage, versus infected control) is “significantly reduced bacterial counts; also recorded: left no bacterial counts”. Also, in the assay with H. pylori (two weeks post-treatment), the “gene-specific (cagL) PCR signal in stomach homogenates” value is given as “strong residual bacterial load; also recorded: all mice still had detectable specific bacterial (PCR) signal; also recorded: still readily detectable by PCR”. Consider `Cn1c(CSC(=N)N)c(Br)c(=O)n1-c1ccccn1` [DJ-13], for which, in assay [1], the “Weak activity (% of non-inhibited control)” value is recorded as “Weak activity (+/- 50 % of non-inhibited control) (IC50 not determined)” and the “inhibitory activity” value is on record as “detectable yet weaker inhibitory activity”. On to `Cn1c(CSC(=N)N)c(Br)c(=O)n1-c1ccc(-c2ccccc2)cc1` [DJ-8, (1-([1',1"-biphenyl]-4'-yl)-4-bromo-2-methyl-5-oxo-2,5-dihydro-1H-pyrazol-3-yl)methyl carbamimidothioate], for which the IC50 in assay [1] (setting [2]) was under 4.5 µg/mL. Same read-out and setting: the result for `CCn1c(CS)c(Br)c(=O)n1-c1ccccc1` [DJ-12] reads under 4.5 µg/mL. Consider `Cn1c(CSC(=N)N)c(Br)c(=O)n1-c1ccccc1` [DJ-1, (4-bromo-2-methyl-5-oxo-1-phenyl-2,5-dihydro-1H-pyrazol-3-yl)methyl carbamimidothioate], for which, in assay [1] (H. pylori screen), the “Luciferase assay (% of control)” value was 1,4 % of control. In addition, the IC50 in assay [1] (setting [2]) was under 4.5 µg/mL; in assay [1] (Helicobacter pylori, read-out: IC50 (luciferase assay), luciferase flagellar reporter assay, Table 3), 3.05 µg/mL and 10.3 µM. Further, the “Metabolic assay (% of control)” value in the assay with H. pylori N6 is 107,7 % of control. In the case of `Cn1c(CN)c(Br)c(=O)n1-c1ccccc1` [DJ-4, 5-(aminomethyl)-4-bromo-1-methyl-2-phenyl-1,2-dihydro-3H-pyrazol-3-one], the 50% inhibitory concentration (IC50) entry in assay [1] (setting [3]) is “No IC50”. Further, in assay [1], the “inhibitory activity” value is on record as “No inhibitory activity was detectable”.

Compound `Cc1ccc(-n2c(=O)c(Br)c(CSC(=N)N)n2C)cc1` [DJ-5, (4-bromo-2-methyl-5-oxo-1-(p-tolyl)-2,5-dihydro-1H-pyrazol-3-yl)methyl carbamimidothioate] had an IC50 in assay [1] (setting [2]) of under 4.5 µg/mL. In the case of “carbonyl cyanide m-chlorophenyl hydrazine [CCCP, reference compound]”, the “inhibitory activity” value in assay [1] is reported as “inhibited the luminescence reporter activity”. On to `Cc1cc(C)cc(-n2c(=O)c(Br)c(CSC(=N)N)n2C)c1` [DJ-6, (4-bromo-1-(3',5'-dimethylphenyl)-2-methyl-5-oxo-2,5-dihydro-1H-pyrazol-3-yl)methyl carbamimidothioate], for which the IC50 in assay [1] (setting [2]) was under 4.5 µg/mL. In assay [1] (setting [3]), `Cn1c(CS)c(Br)c(=O)n1-c1ccccc1` [DJ-2, 4-bromo-5-(mercaptomethyl)-1-methyl-2-phenyl-1,2-dihydro-3H-pyrazol-3-one] registered an IC50 of 0.44 µg/mL (≈ 1.47 µM).

On to `CCn1c(CSC(=N)N)c(Br)c(=O)n1-c1ccccc1` [DJ-11], for which half-maximal inhibition in assay [1] (setting [2]) (IC50) was put at 10.6 µg/mL (≈ 29.7 µM). For `Cn1c(CSCCO)c(Br)c(=O)n1-c1ccccc1` [DJ-3, 4-bromo-5-(((2-hydroxyethyl)thio)methyl)-1-methyl-2-phenyl-1,2-dihydro-3H-pyrazol-3-one], the IC50 entry in assay [1] (setting [3]) is “No IC50”. For the same compound, in assay [1], the “inhibitory activity” value is “No inhibitory activity was detectable”.

On to `Cn1c(CSC(=N)N)c(Br)c(=O)n1-c1ccc(C(F)(F)F)cc1` [DJ-10, (4-bromo-2-methyl-5-oxo-1-(4'-(trifluoromethyl)phenyl)-2,5-dihvdro-1H-pyrazol-3-yl)methyl carbamimidothioate], for which inhibition in assay [1] (setting [2]) was half-maximal at 10.8 µg/mL (≈ 26.5 µM) (IC50). `CC1(C)S[C@@H]2[C@H](NC(=O)[C@H](N)c3ccccc3)C(=O)N2[C@H]1C(=O)O` [ampicillin, reference compound]: in assay [1], the “inhibitory activity” value is on record as “did not alter the readings in the luciferase reporter assay”. For `C=C(C)[C@H]1Cc2c(ccc3c2O[C@@H]2COc4cc(OC)c(OC)cc4[C@@H]2C3=O)O1` [rotenone, reference compound], the “inhibitory activity” value in assay [1] is “inhibited the luminescence reporter activity”.

Source of the values: patent EP3892734B1, “SCREENING METHODS AND THERAPEUTIC APPLICATIONS BASED ON BACTERIAL MOTILITY INHIBITION” (Ludwig-Maximilians-Universität München, priority 2020, dated 2021).
